According to patent US9421276B2, “Clickable polyoxetane carrier for drug delivery” (VIRGINIA COMMONWEALTH UNIVERSITY, priority 2012, dated 2016):

Legend:
[1] = system: Human glioma U1242/luc-GFP cells; assay: Cell toxicity assay (luciferase assay); format: cell-based; details: 48 h, carriers at concentrations up to 33 μM
Procedure: Cell toxicity assays. Human glioma U1242/luc-GFP cells stably expressing the reporter luciferase were exposed to various CPT equivalent concentrations of polymer-CPT conjugates or polymer control samples (n=4) in a 96-well microtiter plate for 48 h followed by luciferase assay to assess survival of cells.

[2] = physiological pH, background statement; cited from earlier work

CC[C@@]1(O)C(=O)OCc2c1cc1n(c2=O)Cc2cc3ccccc3nc2-1 [CPT, 20(S)-Camptothecin]
cytotoxicity [1]: dose-dependent toxic
stability of lactone form [2]: rapidly transforms into the carboxylate form
